Source: BindingDB's records for doi:10.1111/cbdd.12779 (Ferdowsi University of Mashhad, 2016)
Where “and” joins values, the source holds several entries; their conditions need not be identical. Identical values can stand only once.

Target: T1, Seed linoleate 13S-lipoxygenase-1 (Glycine max, UniProt P08170)
T1 sequence (P08170 whole entry): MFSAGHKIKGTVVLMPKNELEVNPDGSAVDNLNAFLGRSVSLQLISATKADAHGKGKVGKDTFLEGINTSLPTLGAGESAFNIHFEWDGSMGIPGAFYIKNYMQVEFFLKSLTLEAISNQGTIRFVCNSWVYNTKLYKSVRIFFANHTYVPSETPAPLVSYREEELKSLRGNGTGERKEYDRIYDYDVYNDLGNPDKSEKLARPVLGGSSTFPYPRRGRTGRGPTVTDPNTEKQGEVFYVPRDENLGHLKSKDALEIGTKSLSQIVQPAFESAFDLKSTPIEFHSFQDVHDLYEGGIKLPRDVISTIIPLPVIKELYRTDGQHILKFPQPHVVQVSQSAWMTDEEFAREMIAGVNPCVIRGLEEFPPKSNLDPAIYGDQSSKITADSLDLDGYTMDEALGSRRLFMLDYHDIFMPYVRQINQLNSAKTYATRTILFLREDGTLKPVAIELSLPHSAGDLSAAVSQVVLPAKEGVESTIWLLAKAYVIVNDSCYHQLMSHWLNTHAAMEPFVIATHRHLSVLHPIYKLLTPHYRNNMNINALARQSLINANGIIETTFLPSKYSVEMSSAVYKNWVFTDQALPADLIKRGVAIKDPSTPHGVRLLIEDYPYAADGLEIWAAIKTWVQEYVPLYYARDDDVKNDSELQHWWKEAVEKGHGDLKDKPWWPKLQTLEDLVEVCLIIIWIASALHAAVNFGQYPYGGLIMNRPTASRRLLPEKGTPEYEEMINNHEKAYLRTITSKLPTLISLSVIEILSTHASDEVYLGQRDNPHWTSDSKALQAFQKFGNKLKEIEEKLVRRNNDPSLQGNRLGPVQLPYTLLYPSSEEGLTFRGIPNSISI
Experiment: Lipo-oxygenase Inhibitory Assay
Settings: pH 7; 25 °C
Procedure: Solution A was 50 mm DMAB in an 100 mm phosphate buffer (pH 7.0). Solution B was a mixture of 10 mm MBTH (3 mL) and hemoglobin (5 mg/mL, 3 mL) in 50 mm phosphatebuffer at pH 5.0 (25 mL). A linoleic acid solution was prepared by mixing 5 mg of linoleic acid with 50 mg Tween-20 in 3 mL water and then diluted with KOH 100 mmto a final volume of 5 mL. In the standard assay, the sample in ethanol (25 uL), SLO (EC 1,13,11,12; 4000 units/mL; 25 uL) and phosphate buffer, pH 7.0 (50 mm; 900 uL), were mixed in a test-tube and preincubation was carried out for 5 min at room temperature. A control test was done with the same volume of ethanol. Afterthe preincubation, linoleic acid solution (50 uL) was added to start the peroxidation reaction, and, 7 min later, solution A (270 uL) and then solution B (130 uL) were added to start the color formation. Further, 5 min later, 200 uL of a 2% SDS solution was added to terminate the reaction.

| Structure (SMILES) | IC50 |
| --- | --- |
| C=CCc1cccc(OC)c1OC [1,2-dimethoxy-3-(prop-2-en-1-yl)benzene (3)] | 128 µM |
| C=CCc1ccc(OC)cc1OC [1-Allyl-2,4-dimethoxybenzene (5)] | 31.4 µM and 103 µM |
| C=CCc1cc(OC)cc(OC)c1 [1-Allyl-3,5-dimethoxybenzene (2)] | 43.2 µM |
| C=CCc1c(OC)cc(OC)cc1OC [2-Allyl-1,3,5-trimethoxybenzene (7)] | 83.2 µM |
| C=CCc1c(OC)cc(C)cc1OC [2-Allyl-1,3-dimethoxy-5-methylbenzene (8)] | 30.5 µM |
| C=CCc1c(OC)cccc1OC [2-Allyl-1,3-dimethoxybenzene (6)] | 53.2 µM |
| C=CCc1ccc(OC)c(OC)c1 [METHYLEUGENOL] | 33.3 µM |

Next, values leading:

| IC50 | Structure (SMILES) |
| --- | --- |
| 7.6 µM | COc1cc(C)cc(OC)c1CC=C(C)C [1,3-Dimethoxy-5-methyl-2-(3-methylbut-2-en-1-yl)benzene (9)] |
| 0.52 µM | COc1cc(C)cc(OC)c1C/C=C(\C)CC/C=C(\C)CCC=C(C)C [1,3-Dimethoxy-5-methyl-2-((2E,6E)-3,7,11-trimethyldodeca-2,6,10-trien-1-yl)benzene (11)] |
| 22.6 µM | Cc1nc(N2CCN(C)CC2)nc2c1Nc1ccccc1S2 [4-MMPB] |
| 5.3 µM | COc1cc(C)cc(OC)c1C/C=C(\C)CCC=C(C)C [(E)-2-(3,7-Dimethylocta-2,6-dien-1-yl)-1,3-dimethoxy-5-methylbenzene (10)] |
